# Results published in the kinase profiling compilation of Christmann-Franck et al. (2016).
# Columns and labels:
# Experiment in all cases: radiometric filter-binding kinase assay
# [1] = molecular target: PAK6 (human) (UniProt Q9NQU5)
# [2] = molecular target: MST4 (human) (UniProt Q9P289)
# [3] = molecular target: MAP3K9 (human) (UniProt P80192)
# [4] = molecular target: MAPKAPK5 (human) (UniProt Q8IW41)
# [5] = molecular target: HIPK3 (human) (UniProt Q9H422)
# [6] = molecular target: IKBKE (human) (UniProt Q14164)
# [7] = tested on: AKT1 (human), P31749 [S473D]
# [8] = molecular target: DYRK3 (human) (UniProt O43781)
# [9] = molecular target: MAP2K6 (human) (UniProt P52564)
# [10] = molecular target: CaMK1 (human) (UniProt Q14012)
# [11] = molecular target: NEK6 (human) (UniProt Q9HC98)
# [12] = molecular target: MAPK13 (human) (UniProt O15264)
# [13] = molecular target: TAOK1 (human) (UniProt Q7L7X3)
# [14] = molecular target: EPHB1 (human) (UniProt P54762)
# [15] = molecular target: HIPK1 (human) (UniProt Q86Z02)
# [16] = molecular target: PAK4 (human) (UniProt O96013)
# [17] = molecular target: RPS6KA5 KD1 KD2 (human) (UniProt O75582)
# [18] = molecular target: DAPK1 (human) (UniProt P53355)
# [19] = molecular target: MARK3 (human) (UniProt P27448)
# [20] = tested on: ROCK2 (rat); conditions: accession and sequence are those of the human protein
# [21] = molecular target: EPHB3 (human) (UniProt P54753)
# [22] = molecular target: MAPK14 (human) (UniProt Q16539)
# [23] = molecular target: HIPK2 (human) (UniProt Q9H2X6)
# [24] = molecular target: MARK1 (human) (UniProt Q9P0L2)
# [25] = molecular target: EEF2K (human) (UniProt O00418)
# [26] = molecular target: PRKCZ (human) (UniProt Q05513)
# [27] = molecular target: PAK7 (human) (UniProt Q9P286)
# [28] = molecular target: EPHA2 (human) (UniProt P29317)
# [29] = molecular target: CSNK2A1 (human) (UniProt P68400)
# [30] = molecular target: NUAK1 (human) (UniProt O60285)
# [31] = molecular target: DYRK2 (human) (UniProt Q92630)
# [32] = molecular target: MAPK11 (human) (UniProt Q15759)
# [33] = molecular target: DYRK1A (human) (UniProt Q13627)
# [34] = molecular target: BTK (human) (UniProt Q06187)
# [35] = tested on: LCK (mouse); conditions: compound 1.0 µM; accession and sequence are those of the human protein
# [36] = molecular target: ERBB4 (human) (UniProt Q15303)
# Chain of MAPK14 (human) (Q16539 whole entry, looked up): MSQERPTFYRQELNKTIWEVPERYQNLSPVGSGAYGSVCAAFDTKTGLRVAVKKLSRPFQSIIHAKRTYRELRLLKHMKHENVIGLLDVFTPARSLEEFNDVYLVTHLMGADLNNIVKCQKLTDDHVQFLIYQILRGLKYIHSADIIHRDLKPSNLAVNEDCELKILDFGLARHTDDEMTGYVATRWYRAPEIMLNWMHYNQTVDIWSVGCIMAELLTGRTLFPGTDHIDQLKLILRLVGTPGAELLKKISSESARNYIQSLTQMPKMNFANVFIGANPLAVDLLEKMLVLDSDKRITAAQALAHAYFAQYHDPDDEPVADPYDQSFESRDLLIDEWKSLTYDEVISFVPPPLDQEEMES
# Chain of CSNK2A1 (human) (P68400 whole entry, looked up): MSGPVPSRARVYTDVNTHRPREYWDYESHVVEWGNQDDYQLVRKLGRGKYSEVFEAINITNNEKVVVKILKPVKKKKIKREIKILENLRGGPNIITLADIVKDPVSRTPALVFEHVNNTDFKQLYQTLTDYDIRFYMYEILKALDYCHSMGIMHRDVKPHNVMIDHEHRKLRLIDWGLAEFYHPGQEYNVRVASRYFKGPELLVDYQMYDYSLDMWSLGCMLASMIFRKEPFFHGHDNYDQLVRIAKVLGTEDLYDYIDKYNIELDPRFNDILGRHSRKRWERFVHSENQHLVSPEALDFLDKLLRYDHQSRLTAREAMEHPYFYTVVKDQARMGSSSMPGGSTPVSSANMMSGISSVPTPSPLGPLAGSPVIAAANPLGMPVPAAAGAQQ
# Chain of EPHB1 (human) (P54762 whole entry, looked up): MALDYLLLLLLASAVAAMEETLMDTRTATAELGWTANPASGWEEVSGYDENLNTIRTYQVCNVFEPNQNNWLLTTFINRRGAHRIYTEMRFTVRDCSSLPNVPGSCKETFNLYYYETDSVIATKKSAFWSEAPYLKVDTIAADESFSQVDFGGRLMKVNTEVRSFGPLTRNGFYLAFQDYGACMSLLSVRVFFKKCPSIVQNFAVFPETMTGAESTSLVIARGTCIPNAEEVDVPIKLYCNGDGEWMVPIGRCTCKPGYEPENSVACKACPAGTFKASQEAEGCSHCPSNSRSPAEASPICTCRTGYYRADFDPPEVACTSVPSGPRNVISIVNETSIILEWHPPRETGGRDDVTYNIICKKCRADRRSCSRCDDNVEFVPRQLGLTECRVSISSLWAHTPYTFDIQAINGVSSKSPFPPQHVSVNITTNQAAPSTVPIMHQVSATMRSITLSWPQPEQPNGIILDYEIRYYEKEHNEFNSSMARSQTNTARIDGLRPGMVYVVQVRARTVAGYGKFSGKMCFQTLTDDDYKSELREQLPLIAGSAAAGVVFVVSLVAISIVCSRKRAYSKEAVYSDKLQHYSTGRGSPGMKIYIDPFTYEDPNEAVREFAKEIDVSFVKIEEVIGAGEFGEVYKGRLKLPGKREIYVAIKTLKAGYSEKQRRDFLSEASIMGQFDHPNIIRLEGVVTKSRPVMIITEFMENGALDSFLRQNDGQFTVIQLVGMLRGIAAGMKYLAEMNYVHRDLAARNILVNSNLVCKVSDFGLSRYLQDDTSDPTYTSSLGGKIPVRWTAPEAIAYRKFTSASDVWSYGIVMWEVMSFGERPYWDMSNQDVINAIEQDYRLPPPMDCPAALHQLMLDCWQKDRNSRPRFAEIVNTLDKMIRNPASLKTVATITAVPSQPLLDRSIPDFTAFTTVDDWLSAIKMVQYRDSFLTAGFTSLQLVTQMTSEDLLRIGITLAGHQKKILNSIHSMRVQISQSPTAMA
# Chain of NEK6 (human) (Q9HC98 whole entry, looked up): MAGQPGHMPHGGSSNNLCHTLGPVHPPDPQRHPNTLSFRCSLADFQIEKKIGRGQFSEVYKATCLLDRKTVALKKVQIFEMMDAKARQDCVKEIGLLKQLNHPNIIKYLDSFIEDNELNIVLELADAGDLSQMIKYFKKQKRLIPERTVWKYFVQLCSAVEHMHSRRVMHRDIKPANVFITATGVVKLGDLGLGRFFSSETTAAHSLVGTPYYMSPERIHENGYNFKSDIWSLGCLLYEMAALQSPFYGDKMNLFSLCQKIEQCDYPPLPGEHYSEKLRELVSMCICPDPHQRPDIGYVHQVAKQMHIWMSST
# Chain of EEF2K (human) (O00418 whole entry, looked up): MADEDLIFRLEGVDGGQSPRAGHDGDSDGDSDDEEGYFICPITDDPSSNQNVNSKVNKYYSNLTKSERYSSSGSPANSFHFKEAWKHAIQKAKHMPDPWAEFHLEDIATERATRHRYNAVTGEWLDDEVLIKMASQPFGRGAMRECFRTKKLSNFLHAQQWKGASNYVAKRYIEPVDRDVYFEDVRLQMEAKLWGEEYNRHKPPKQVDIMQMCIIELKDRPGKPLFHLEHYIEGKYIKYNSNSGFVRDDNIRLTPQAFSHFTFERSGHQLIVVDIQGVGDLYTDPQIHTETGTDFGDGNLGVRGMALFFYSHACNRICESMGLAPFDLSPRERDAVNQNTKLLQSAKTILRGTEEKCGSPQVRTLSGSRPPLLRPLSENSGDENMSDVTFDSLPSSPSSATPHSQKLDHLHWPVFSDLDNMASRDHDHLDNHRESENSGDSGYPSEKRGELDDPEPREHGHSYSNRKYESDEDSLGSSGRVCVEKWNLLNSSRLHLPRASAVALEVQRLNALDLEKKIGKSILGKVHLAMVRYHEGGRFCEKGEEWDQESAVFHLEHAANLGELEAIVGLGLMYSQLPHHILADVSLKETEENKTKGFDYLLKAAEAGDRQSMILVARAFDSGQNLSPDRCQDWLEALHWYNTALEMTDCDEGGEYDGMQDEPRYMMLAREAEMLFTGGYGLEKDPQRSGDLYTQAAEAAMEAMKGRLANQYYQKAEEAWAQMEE
# Chain of DAPK1 (human) (P53355 whole entry, looked up): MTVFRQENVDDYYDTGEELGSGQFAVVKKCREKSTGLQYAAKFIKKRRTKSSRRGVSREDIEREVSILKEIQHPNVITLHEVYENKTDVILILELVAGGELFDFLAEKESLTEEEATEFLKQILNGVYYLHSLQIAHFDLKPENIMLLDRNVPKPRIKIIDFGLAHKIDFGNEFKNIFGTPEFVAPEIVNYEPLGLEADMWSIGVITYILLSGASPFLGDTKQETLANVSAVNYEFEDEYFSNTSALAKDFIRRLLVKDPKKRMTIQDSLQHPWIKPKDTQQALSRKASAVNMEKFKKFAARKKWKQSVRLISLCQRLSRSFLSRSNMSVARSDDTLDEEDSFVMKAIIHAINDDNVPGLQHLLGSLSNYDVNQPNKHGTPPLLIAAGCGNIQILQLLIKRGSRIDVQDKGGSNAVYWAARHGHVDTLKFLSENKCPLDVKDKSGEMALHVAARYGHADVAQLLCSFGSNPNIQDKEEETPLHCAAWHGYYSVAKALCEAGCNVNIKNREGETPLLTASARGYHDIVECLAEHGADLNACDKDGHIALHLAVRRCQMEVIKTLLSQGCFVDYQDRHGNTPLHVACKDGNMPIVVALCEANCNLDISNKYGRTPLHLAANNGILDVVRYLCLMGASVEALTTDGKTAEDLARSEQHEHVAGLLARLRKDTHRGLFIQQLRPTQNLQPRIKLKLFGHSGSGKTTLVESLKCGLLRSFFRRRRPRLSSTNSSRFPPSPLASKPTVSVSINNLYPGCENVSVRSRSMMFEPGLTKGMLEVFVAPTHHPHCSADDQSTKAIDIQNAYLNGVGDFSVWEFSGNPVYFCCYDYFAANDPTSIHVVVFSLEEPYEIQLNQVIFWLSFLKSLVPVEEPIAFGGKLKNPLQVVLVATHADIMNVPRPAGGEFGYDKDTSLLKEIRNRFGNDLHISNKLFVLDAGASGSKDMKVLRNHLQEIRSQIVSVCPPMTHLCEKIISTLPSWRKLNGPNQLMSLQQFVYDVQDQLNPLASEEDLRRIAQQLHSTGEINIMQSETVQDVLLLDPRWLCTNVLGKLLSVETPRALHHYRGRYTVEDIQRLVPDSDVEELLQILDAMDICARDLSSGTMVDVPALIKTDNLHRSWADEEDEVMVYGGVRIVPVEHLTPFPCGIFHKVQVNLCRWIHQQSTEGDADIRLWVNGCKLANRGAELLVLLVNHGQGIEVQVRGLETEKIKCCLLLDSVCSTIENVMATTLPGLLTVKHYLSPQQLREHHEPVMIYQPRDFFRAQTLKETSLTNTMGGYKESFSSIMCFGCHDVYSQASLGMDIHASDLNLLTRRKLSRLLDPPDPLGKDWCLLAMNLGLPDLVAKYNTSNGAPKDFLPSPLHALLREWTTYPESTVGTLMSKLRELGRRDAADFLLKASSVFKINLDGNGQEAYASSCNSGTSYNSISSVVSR
# Chain of AKT1 (human), P31749 [S473D] (P31749 whole entry S473D, looked up): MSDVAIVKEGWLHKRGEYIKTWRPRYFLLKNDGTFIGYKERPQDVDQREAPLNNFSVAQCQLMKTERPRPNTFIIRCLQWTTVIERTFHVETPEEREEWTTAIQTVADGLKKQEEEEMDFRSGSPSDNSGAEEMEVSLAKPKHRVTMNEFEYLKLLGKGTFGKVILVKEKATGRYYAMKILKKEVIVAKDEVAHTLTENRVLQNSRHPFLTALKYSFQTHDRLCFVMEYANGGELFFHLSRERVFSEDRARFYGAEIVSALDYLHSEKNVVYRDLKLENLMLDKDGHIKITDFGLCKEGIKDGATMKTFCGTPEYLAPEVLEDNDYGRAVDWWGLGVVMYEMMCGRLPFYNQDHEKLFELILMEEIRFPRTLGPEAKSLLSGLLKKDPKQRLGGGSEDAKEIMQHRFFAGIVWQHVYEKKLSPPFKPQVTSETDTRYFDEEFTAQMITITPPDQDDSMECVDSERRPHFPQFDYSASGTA
# Chain of MAPK11 (human) (Q15759 whole entry, looked up): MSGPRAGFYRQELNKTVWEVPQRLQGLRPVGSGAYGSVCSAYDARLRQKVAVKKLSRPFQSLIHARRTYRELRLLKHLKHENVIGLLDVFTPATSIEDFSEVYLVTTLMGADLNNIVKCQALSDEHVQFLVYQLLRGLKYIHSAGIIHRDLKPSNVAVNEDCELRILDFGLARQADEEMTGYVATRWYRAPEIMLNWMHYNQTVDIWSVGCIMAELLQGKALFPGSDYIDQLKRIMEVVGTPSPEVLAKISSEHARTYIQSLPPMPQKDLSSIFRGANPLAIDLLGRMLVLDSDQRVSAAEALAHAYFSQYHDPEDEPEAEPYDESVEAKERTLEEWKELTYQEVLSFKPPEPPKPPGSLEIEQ
compound,measurement,setting,value
Cc1ccc(-c2ccc3c(ccc4sc5c(c43)NC[C@@H](C)NC5=O)n2)cn1,residual activity,[1]; compound 0.1 µM,117%
same,residual activity,[1]; compound 1.0 µM,106%
same,residual activity,[1]; compound 10.0 µM,116%
same,residual activity,[2]; compound 1.0 µM,101%
same,residual activity,[2]; compound 10.0 µM,91%
same,residual activity,[3]; compound 0.1 µM,99%
same,residual activity,[3]; compound 1.0 µM,95%
same,residual activity,[4]; compound 1.0 µM,67%
same,residual activity,[4]; compound 10.0 µM,24%
same,residual activity,[5]; compound 0.1 µM,112%
same,residual activity,[5]; compound 1.0 µM,108%
same,residual activity,[5]; compound 10.0 µM,96%
same,residual activity,[6]; compound 0.1 µM,98%
same,residual activity,[6]; compound 1.0 µM,95%
same,residual activity,[6]; compound 10.0 µM,44%
same,residual activity,[7]; compound 0.1 µM,109%
same,residual activity,[7]; compound 1.0 µM,97%
same,residual activity,[7]; compound 10.0 µM,98%
same,residual activity,[8]; compound 0.1 µM,111%
same,residual activity,[8]; compound 10.0 µM,40%
same,residual activity,[9]; compound 0.1 µM,95%
same,residual activity,[9]; compound 10.0 µM,91%
same,residual activity,[10]; compound 0.1 µM,96%
same,residual activity,[10]; compound 1.0 µM,97%
same,residual activity,[10]; compound 10.0 µM,68%
same,residual activity,[11]; compound 0.1 µM,109%
same,residual activity,[11]; compound 1.0 µM,96%
same,residual activity,[11]; compound 10.0 µM,66%
same,residual activity,[12]; compound 0.1 µM,108%
same,residual activity,[12]; compound 1.0 µM,103%
same,residual activity,[12]; compound 10.0 µM,94%
same,residual activity,[13]; compound 0.1 µM,109%
same,residual activity,[13]; compound 1.0 µM,98%
same,residual activity,[13]; compound 10.0 µM,70%
same,residual activity,[14]; compound 0.1 µM,113%
same,residual activity,[14]; compound 1.0 µM,106%
same,residual activity,[14]; compound 10.0 µM,106%
same,residual activity,[15]; compound 0.1 µM,111%
same,residual activity,[15]; compound 1.0 µM,104%
same,residual activity,[15]; compound 10.0 µM,130%
same,residual activity,[16]; compound 0.1 µM,103%
same,residual activity,[16]; compound 1.0 µM,88%
same,residual activity,[16]; compound 10.0 µM,82%
same,residual activity,[17]; compound 0.1 µM,120%
same,residual activity,[17]; compound 1.0 µM,105%
same,residual activity,[17]; compound 10.0 µM,99%
same,residual activity,[18]; compound 0.1 µM,103%
same,residual activity,[18]; compound 1.0 µM,62%
same,residual activity,[18]; compound 10.0 µM,15%
same,residual activity,[19]; compound 0.1 µM,113%
same,residual activity,[19]; compound 1.0 µM,115%
same,residual activity,[20]; compound 0.1 µM,112%
same,residual activity,[20]; compound 1.0 µM,96%
same,residual activity,[20]; compound 10.0 µM,95%
same,residual activity,[21]; compound 0.1 µM,98%
same,residual activity,[21]; compound 1.0 µM,88%
same,residual activity,[21]; compound 10.0 µM,85%
same,residual activity,[22]; compound 0.1 µM,94%
same,residual activity,[22]; compound 1.0 µM,94%
same,residual activity,[22]; compound 10.0 µM,83%
same,residual activity,[23]; compound 1.0 µM,113%
same,residual activity,[23]; compound 10.0 µM,78%
same,residual activity,[24]; compound 0.1 µM,116%
same,residual activity,[24]; compound 1.0 µM,107%
same,residual activity,[24]; compound 10.0 µM,93%
same,residual activity,[25]; compound 0.1 µM,106%
same,residual activity,[25]; compound 1.0 µM,97%
same,residual activity,[25]; compound 10.0 µM,85%
same,residual activity,[26]; compound 0.1 µM,115%
same,residual activity,[26]; compound 1.0 µM,112%
same,residual activity,[26]; compound 10.0 µM,106%
same,residual activity,[27]; compound 0.1 µM,108%
same,residual activity,[27]; compound 1.0 µM,101%
same,residual activity,[27]; compound 10.0 µM,101%
same,residual activity,[28]; compound 0.1 µM,90%
same,residual activity,[28]; compound 1.0 µM,95%
same,residual activity,[28]; compound 10.0 µM,76%
same,residual activity,[29]; compound 0.1 µM,100%
same,residual activity,[29]; compound 1.0 µM,97%
same,residual activity,[29]; compound 10.0 µM,93%
same,residual activity,[30]; compound 1.0 µM,102%
same,residual activity,[30]; compound 10.0 µM,58%
same,residual activity,[31]; compound 0.1 µM,101%
same,residual activity,[31]; compound 1.0 µM,105%
same,residual activity,[31]; compound 10.0 µM,52%
same,residual activity,[32]; compound 0.1 µM,118%
same,residual activity,[32]; compound 1.0 µM,126%
same,residual activity,[32]; compound 10.0 µM,117%
same,residual activity,[33]; compound 0.1 µM,80%
same,residual activity,[33]; compound 1.0 µM,31%
same,residual activity,[33]; compound 10.0 µM,8%
same,residual activity,[34]; compound 0.1 µM,120%
same,residual activity,[34]; compound 1.0 µM,118%
same,residual activity,[34]; compound 10.0 µM,107%
same,residual activity,[35],95%
same,residual activity,[36]; compound 0.1 µM,92%
same,residual activity,[36]; compound 1.0 µM,105%
same,residual activity,[36]; compound 10.0 µM,99%
